Measured values: ChEMBL document CHEMBL1130359, “In vivo immunosuppressive activity of some cyclolignans” (Bioorg Med Chem Lett, 1997)
Converted amounts (≈) assume the structure as drawn.

What was measured:
[1] = Non-cytotoxic IMS activity (ratio LcV/MLR) was determined; format: functional
[2] = Tested in vitro for cytotoxicity against […](LcV) in cells; format: functional
[3] = species: Mus musculus; assay: Tested for immunosuppressive activity in mouse using allogenic MLR method; format: functional, organism-based

**Q.** With `COc1cc([C@H]2C3=C(COC3=O)Cc3cc4c(cc32)OCO4)cc(OC)c1OC` as the compound, how does the Ratio [1] read?
**A.** >3333

**Q.** What about the Cytotoxicity [2] of the same compound?
**A.** >28.5 µg/mL

**Q.** And the IC50 [3]?
**A.** < 0.00855 µg/mL

**Q.** Which Ratio [1] does the source give for `COc1cc([C@@H]2c3cc(OC(C)=O)c(OC(C)=O)cc3[C@H](OC(C)=O)[C@H]3COC(=O)[C@H]23)cc(OC)c1OC` here?
**A.** >428

**Q.** And the Cytotoxicity [2]?
**A.** >26 µg/mL

**Q.** And the IC50 [3]?
**A.** 0.0607 µg/mL (≈ 0.115 µM)

**Q.** For `COc1cc([C@@H]2c3cc(OC(C)=O)c(OC(C)=O)cc3[C@@H](OC(C)=O)[C@H]3COC(=O)[C@H]23)cc(OC)c1OC`, which Ratio [1] is on record?
**A.** >67

**Q.** And the Cytotoxicity [2]?
**A.** >28.5 µg/mL

**Q.** What about the IC50 [3] of the same compound?
**A.** 0.427 µg/mL (≈ 0.808 µM)

**Q.** What does the source list for `COc1cc([C@@H]2c3cc(O)c(O)cc3C[C@H]3COC(=O)[C@@H]32)cc(OC)c1OC`?
**A.** Ratio [1]: >43; Cytotoxicity [2]: >25 µg/mL; IC50 [3]: 0.585 µg/mL (≈ 1.51 µM)

**Q.** Which Ratio [1] does the source give for `COc1cc([C@@H]2c3cc4c(cc3[C@H](O)[C@H]3COC(=O)[C@H]23)OCO4)cc(OC)c1OC` [PODOFILOX] here?
**A.** >2187

**Q.** What about the Cytotoxicity [2] of the same compound?
**A.** 280 µg/mL

**Q.** And the IC50 [3]?
**A.** < 0.128 µg/mL

**Q.** For `COc1cc([C@@H]2c3cc4c(cc3[C@@H](O)[C@H]3COC(=O)[C@H]23)OCO4)cc(OC)c1OC` [EPIPODOPHYLLOTOXIN], which Ratio [1] is on record?
**A.** >284

**Q.** And the Cytotoxicity [2]?
**A.** >65 µg/mL

**Q.** And the IC50 [3]?
**A.** 0.229 µg/mL (≈ 0.553 µM)

**Q.** With `COc1cc([C@H]2C3=C(COC3=O)Cc3cc(OC(C)=O)c(OC(C)=O)cc32)cc(OC)c1OC` as the compound, how does the Ratio [1] read?
**A.** >78

**Q.** And the Cytotoxicity [2]?
**A.** >28.5 µg/mL

**Q.** And the IC50 [3]?
**A.** 0.366 µg/mL (≈ 0.781 µM)
